Patent publication US8357687B2, “Macrocyclic indole derivatives useful as hepatitis C virus inhibitors” (priority 2008, dated 2013)

Legend:
[1] = tested on: NS5B chimeric replicon of clinical isolate 1a_H77 in Huh7-cure cells; assay: Transient replicon assay, chimeric replicon of clinical isolate 1a_H77 (CI1); format: cell-based, HCV genotype 1a; conditions: Hepatitis C virus, 48 h, read-out: EC50-T CI1
[2] = tested on: NS5B chimeric replicon of clinical isolate 1a—6 in Huh7-cure cells; assay: Transient replicon assay, chimeric replicon of clinical isolate 1a—6 (CI2); format: cell-based, HCV genotype 1a; conditions: Hepatitis C virus, 48 h, read-out: EC50-T CI2
[3] = tested on: wild type replicon of genotype 1b (con1b) in Huh7-cure cells; assay: Transient replicon assay, wild type replicon of genotype 1b (Con1b); format: cell-based, HCV genotype 1b; conditions: Hepatitis C virus, transient wild type replicon genotype 1b, 48 h, luciferase, read-out: EC50-T Con1b
[4] = molecular target: T1, HCV NS5B polymerase (NS5BΔC21) (Hepatitis C virus genotype 1b, UniProt Q9WMX2); assay: RNA-dependent RNA polymerase assay (enzyme inhibition assay); format: biochemical, HCV (genotype 1b consensus strain Con1)
T1 construct: NS5B (genotype 1b consensus strain Con1) lacking 21 C-terminal residues; made in house; host or cells: E. coli Rosetta 2 (DE3)
Source text: The coding sequence for NS5B (genotype 1b consensus strain Con1) lacking 21 C-terminal residues was amplified from plasmid pFKI389/ns3-3′ (Genbank accession no. AJ242654), plasmid pCV-H77C (Genbank accession no. AF 011751.1) and subcloned into the pET21b plasmid as described previously (Pauwels et al. J. Virol., 2007). The NS5BΔC21 expression constructs were transformed into E. coli Rosetta 2 (DE3) (Novagen, Madison, Wis.). One hundred milliliters of LB-medium supplemented with carbenicillin (50 μg/mL) and chloramphenicol (34 μg/mL) was inoculated with one colony, grown overnight, and transferred to fresh LB-medium supplemented with 3% ethanol, carbenicillin and chloramphenicol, at a ratio of 1:200. Cells were grown to an optical density at 600 nm of 0.6, after which the expression cultures were shifted to a growth temperature of 20° C. following induction with ispopropyl-1-thio-β-D-galactopyranoside and MgCl2 at a final concentration of 0.4 mM and 10 μM, respectively. After 18 h of induction, cells were harvested by centrifugation and resuspended in 20 mM Tris-HCl, pH 7.5, 300 mM NaCl, 10% glycerol, 0.1% NP40, 4 mM MgCl2, 5 mM DTT supplemented with EDTA-free Complete Protease Inhibitor (Roche, Basel, Switzerland). Cell suspensions were disrupted by sonication and incubated with 10-15 mg/L of DNase I (Roche, Basel, Switzerland) for 30 min. Cell debris was removed through ultracentrifugation at 30,000×g for 1 hour and clarified cell lysate was flash frozen and stored at −80° C. prior to purification.
Clarified cell lysate was thawed and subsequently loaded onto a 5 mL pre-packed HisTrap FF column equilibrated with 25 mM HEPES, pH 7.5, 500 mM NaCl, 10% glycerol and 5 mM DTT. Proteins were eluted with 500 mM imidazole at a flow rate of 1 mL/min. Fractions containing the protein of interest were applied onto a pre-packed 26/10 HiPrep Desalting Column equilibrated with 25 mM HEPES, pH 7.5, 250 mM NaCl, 10% glycerol and 5 mM DTT. The buffer-exchanged NS5B peak was then applied onto a 6 ml Resource S column. Protein was eluted with an increasing salt gradient and fractions collected. Protein purity was assessed on Nu-PAGE pre-cast gels (Invitrogen, Carlsbad, Calif.). Purified NS5B samples were concentrated using Centri-Prep concentrators (Millipore, Billerica, Mass., USA) and protein concentrations were determined by spectrofotometry with the Nanodrop (Nanodrop Technologies, Wilmington, Del., USA).
Measurement of HCV NS5B polymerization activity was performed by evaluating the amount of radio labeled GTP incorporated by the enzyme in a newly synthesized RNA using […] RNA template/primer. The RdRp assay was carried out in 384-well plates. 2.5 nM of purified NS5B enzyme was pre-incubated for 10 min with 150 nM 5′-biotinylated oligo(rG13) primer, 15 nM poly(rC) template, in 18 mM Tris-HCl, pH 7.5, 5 mM MgCl2, 20.5 mM KCl, 17 mM NaCl and 2.5 mM of DTT. The test compounds were the added to the preformed polymerase-template complex, and incubated at room temperature for 15 min before the addition 600 nM of GTP, and 0.13 μCi of [^3H]GTP. 30 μL reaction mixture was incubated at room temperature for 2 h before stopping the reaction by adding 30 μL of streptavidin coated SPA-beads (GE Healthcare, Uppsala, Sweden) in 0.5 M EDTA. […] IC50 values represent the concentration of compound required to decrease by 50% the amount of RNA produced which is measured by the detection of incorporated radiolabeled GTP.

[5] = Pharmacokinetic analysis after single oral administration; format: in vivo; conditions: male Sprague-Dawley rats, single oral dose 10 mg/kg, 7 h post dosing; for Kp at 7 h: rat, liver/plasma, read-out: Lever/plasma ratio
Method: Three male Sprague-Dawley rats were given a single oral dose of 10 mg/kg of the studied compounds. The compounds were administered by gavage as a solution in PEG400/2% Vitamine E Tocopherol polyethyleneglycol succinate (Vitamin E-TPGS). 7 hours after administration, the animals were sacrificed and plasma and liver samples taken. The samples were analyzed using a qualified research LC-MS/MS method to determine the concentration of the compound in the liver and the liver-to-plasma ratio at 7 h post dosing.

Compound | EC50 [1] [µM] | EC50 [2] [µM] | EC50 [3] [µM] | IC50 [4] [µM] | Concentration Liver [5] [ng/g] | Kp at 7 h [5]
CN1CCOCCN(C)S(=O)(=O)NC(=O)c2ccc3c(C4CCCCC4)c(n(C)c3c2)-c2ccccc2OCC1=O [Compound 10, 25-cyclohexyl-4,10,19-trimethyl-5,6,9,10-tetrahydro-2H,8H-14,18:17,20-di(metheno)-1,7,11,4,10,12,19-benzodioxathiatetraazacyclodocosine-3,13 (4H,12H,19H)-dione 11,11-dioxide] | 0.121 | 0.088 | 0.075 | 0.161 | 1717 | 64
CN1CCCCN(C)S(=O)(=O)NC(=O)c2ccc3c(C4CCCCC4)c(n(C)c3c2)-c2ccccc2OCC1=O [Compound 15, 24-cyclohexyl-4,9,18-trimethyl-4,5,6,7,8,9-hexahydro-13,17:16,19-di(metheno)-1,10,4,9,11,18-benzoxathiatetraazacyclohenicosine-3,12(2H,11H,18H)-dione 10,10-dioxide] | 0.102 | 0.099 | 0.169 | 0.124 | 1524 | 99
